Assay results as given in US20080090278A1, “METHOD FOR ENHANCING STABILITY OF A COMPOSITION COMPRISING SOLUBLE GLUCOSE DEHYDROGENASE (GDH)” (TOYO BOSEKI KABUSHIKI KAISHA, priority 2006, published 2008).

Legend:
[1] = test system: recombinant FAD-GDH (rAO-FAD-GDH) derived from Aspergillus oryzae; experiment: Thermal stabilization effect of stabilizing agents on rAO-FAD-GDH in solution (Examples 3-6); format: physicochemical; conditions: for thermal stabilization effect on FAD-GDH (in words): 50° C. for 15 minutes, Example 3
Description: Enhancement of the thermal stability referred to herein means increasing of a residual ratio (%) of the GDH enzyme kept after giving the treatment with heat at a certain temperature for a certain time period to the composition comprising the GDH enzyme. In the present invention, the activity in the sample stored at 4° C. which is nearly completely kept is made 100%, this is compared with the activity in the GDH solution after giving the treatment with heat at a certain-temperature for a certain time period, and the residual ratio of the enzyme is calculated.
In the method for measuring the activity described in the method for measuring the GDH enzyme activity described later, an activity value (a) of GDH in the solution stored at 4° C. and an activity value (b) of GDH after giving the treatment with heat at a certain temperature for a certain time period were measured, a relative value[(b)/(a)×100] when the activity value (a) was made 100 was calculated. This relative value was made the residual ratio (%). Comparing the presence with the absence of the added compound, when the residual ratio was increased by the addition of the compound, it was determined that the thermal stability was enhanced.
In the present invention, the activity of FAD-dependent GDH is measured as follows.
The reaction-reagent is made by mixing 15.6 mL of the PIPES buffer, 0.2 mL of the DCPIP solution and 4 mL of the D-glucose solution.
(§1) The reaction reagent (3 mL) is preliminarily heated at 37° C. for 5 minutes. The GDH solution (0.1 mL) is added and gently mixed, subsequently the change of absorbance at 600 nm is recorded for 5 minutes using the spectrophotometer controlled to 37° C. using water as the control, and the change of absorbance per one minute (ΔODTEST) is calculated from the linear portion of the record. The solvent in which GDH will be dissolved in place of the blinded GDH solution is added to the reagent mixture, and the change of absorbance (ΔODBLANK) per one minute is measured. The GDH activity is calculated from these values according to the following formula. One unit (U) in the GDH activity is defined as the amount of the enzyme which reduces […] DCPIP for one minute in the presence of 200 mM D-glucose. Activity (U/mL)=[−(ΔODTEST−ΔODBLANK)×3.0×dilution scale]/(16.3×0.1×1.0) In the above formula, 3.0 represents a liquid amount (mL) of the reaction reagent+the enzyme solution, 16.3 represents a millimolar molecular absorbance coefficient (cm^2/μmol) in the condition for measuring this enzyme, 0.1 represents the liquid amount of the enzyme solution (mL) and 1.0 represents a light path length (cm) of the cell.
The study was performed in accordance with the method for measuring the FAD-GDH activity in Test Example 1 described above.
First, 50 mL of an enzyme solution obtained by dissolving the recombinant FAD-GDH (rAO-FAD-GDH)-derived from Aspergillus oryzae obtained in Example 1 at about 2 U/mL in an enzyme dilution solution (50 mM potassium phosphate buffer, pH 5.5, 0.1% Triton X-100) was prepared. Two tubes in which each stabilizing agent described in Table 1 had been added at each final concentration to 0.9 mL of this enzyme solution to make the total volume 1.0 mL were prepared.
(§2) In two tubes, one tube was stored at −4° C. and another tube was treated at 50° C. for 15 minutes. Then, the FAD-GDH activity in each tube was measured. The enzyme activity in the tube stored at 4° C. was made 100, and comparing with it, the activity value after being treated at 50° C. for 15 minutes was calculated as the residual activity ratio (%).
The method was in accordance with Example 3 described above.
The methods were in accordance with Example 3 above.

[2] = test system: recombinant FAD-GDH (rAT-FAD-GDH) derived from Aspergillus terreus; experiment: Thermal stabilization effect of stabilizing agents on rAT-FAD-GDH in solution (Example 9); format: physicochemical; conditions: for Residual activity ratio (%) / GLD activity value (U/ml) 50° C., 15 min: Table 10, buffer 50 mM K-PB, stabilizer at each final concentration described in Table 1; for Residual activity ratio (%): 50° C., 15 min versus 4° C.; for thermal stabilization effect on FAD-GDH (in words): rAT-FAD-GDH, 50° C. for 15 minutes, Example 9
Description: as §1, with “D-glucose.” for “D-glucose. Activity (U/mL)=[−(ΔODTEST−ΔODBLANK)×3.0×dilution scale]/(16.3×0.1×1.0) In the above formula, 3.0 represents a liquid amount (mL) of the reaction reagent+the enzyme solution, 16.3 represents a millimolar molecular absorbance coefficient (cm^2/μmol) in the condition for measuring this enzyme, 0.1 represents the liquid amount of the enzyme solution (mL) and 1.0 represents a light path length (cm) of the cell.”
Two tubes in which each stabilizing agent described in Table 1 had been added at each final concentration to 0.9 mL of this enzyme solution to make the total volume 1.0 mL were prepared.
as §2, with “4°” for “−4°”

[3] = stabilizer final concentration 1%, rAO-FAD-GDH about 2 U/mL, 50 mM potassium phosphate buffer pH 5.5, 0.1% Triton X-100, 4° C. sample = 100
[4] = stabilizer final concentration 0.25%, rAO-FAD-GDH, pH 5.5

Row | Molecule | thermal stabilization effect on FAD-GDH (in words) ([1]; rAO-FAD-GDH) | Residual activity ratio (%) after treatment at 50° C., 15 min [1, 3] | Residual activity ratio (%) [2] | GLD activity value (U/ml) 50° C., 15 min [2] | thermal stabilization effect on FAD-GDH (in words) [2] | Residual activity ratio (%) after treatment at 50° C., 15 min ([1]; stabilizer final concentration 0.10%, rAO-FAD-GDH, pH 5.5) | Residual activity ratio (%) after treatment at 50° C., 15 min [1, 4]
1 | O=C(CO)[C@@H](O)[C@H](O)[C@H](O)CO [D-(−)-fructose] | high effect | 25.9% | 2.7% | 0.075 U/ml | high effect | – | –
2 | OC[C@@H](O)[C@H]1OC[C@H](O)[C@H]1O [1,4-sorbitane] | high effect | 26.7% | 2.5% | 0.072 U/ml | high effect | – | –
3 | Cl.NCCCC[C@H](N)C(=O)O [L-lysine hydrochloride] | high effect | 23.4% | 3.5% | 0.093 U/ml | high effect | – | –
4 | C[C@H](N)C(=O)O [D-a-alanine] | high effect | 27.1% | 3.2% | 0.09 U/ml | high effect | – | –
5 | Inulin | – | 24.7% | 1.8% | 0.053 U/ml | – | – | –
6 | CC(C)C[C@H](N)C(=O)O [L-leucine] | – | – | 1.4% | 0.038 U/ml | – | 22.2% | –
7 | O=C(O)[C@@H]1CCCN1 [L-(−)-proline] | – | 25.2% | 1.8% | 0.048 U/ml | – | – | –
8 | O=S(=O)([O-])[O-].[Na+].[Na+] [Sodium sulfate] | high effect | – | – | – | high effect | – | –
9 | OC[C@H]1O[C@@](CO)(O[C@H]2O[C@H](CO)[C@@H](O)[C@H](O)[C@H]2O)[C@@H](O[C@H]2O[C@H](CO)[C@@H](O)[C@H](O)[C@H]2O)[C@@H]1O [D-(+)-melezitose] | high effect | 44.7% | 6.9% | 0.193 U/ml | high effect | – | –
10 | O=CC[C@@H](O)[C@H](O)[C@H](O)CO [2-deoxy-D-glucose] | high effect | 69.6% | 36.9% | 1.032 U/ml | high effect | – | –
11 | O=C(O)[C@H]1CCCN1 [D-proline] | – | 24.8% | 2.8% | 0.079 U/ml | – | – | –
12 | N[C@@H](Cc1ccccc1)C(=O)O [phenylalanine] | high effect | – | – | – | high effect | – | –
13 | N.N.O=S(=O)(O)O [Ammonium sulfate] | high effect | – | – | – | high effect | – | –
14 | N[C@@H](CC(=O)O)C(=O)O [L-aspartic acid] | – | 12.2% | 0.2% | 0.005 U/ml | – | – | –
15 | O=C([O-])CC(O)(CC(=O)[O-])C(=O)[O-].[Na+].[Na+].[Na+] [Trisodium citrate] | high effect | – | – | – | high effect | – | –
16 | N[C@@H](Cc1c[nH]cn1)C(=O)O [L-histidine] | – | – | 0.5% | 0.015 U/ml | – | – | 11.4%
17 | NC(=O)CC[C@H](N)C(=O)O [L-glutamine] | – | – | 1.7% | 0.046 U/ml | – | – | 22.6%
18 | O=C(O)CCCC(=O)O [Glutaric acid] | high effect | – | – | – | high effect | – | –
19 | OC[C@H]1O[C@@](CO)(O[C@H]2O[C@H](CO)[C@@H](O)[C@H](O)[C@H]2O)[C@@H](O)[C@@H]1O [Sucrose] | high effect | 44.1% | 2.1% | 0.058 U/ml | high effect | – | –
20 | O=C(O)CCC(=O)O [Succinic acid] | high effect | – | – | – | high effect | – | –
21 | CC[C@H](C)[C@H](N)C(=O)O (racemic) [DL-isoleucine] | – | – | 1.7% | 0.047 U/ml | – | – | 23.4%
